Data published in article PMC12198282, “Application of a high-density microelectrode array assay using a 3D human iPSC-derived brain microphysiological system model for in vitro neurotoxicity screening of environmental compounds” (Archives of Toxicology, 2025).
Entries after “also recorded” stand apart in the source; their conditions may differ. Like-named read-outs stand apart in the source and are kept apart here.

Experiments:
[1] = test system: BrainSpheres; assay: Cytotoxicity evaluation, resazurin assay (BrainSphere.Cyto); format: cell-based, human; conditions: for AC50: Homo sapiens, 312 h, read-out: ac50 BrainSphere.Cyto; on hitc BrainSphere.Cyto: key: 1 (active); 0 (inactive)
Method: For the resazurin assay, BrainSpheres were cultured for 7 weeks in non-treated 6-well plates under gyratory shaking. Subsequently, the cells were exposed in the same manner as the HD-MEA plates. This assay was used to determine cell viability after exposure for 13 days to the different compounds. After exposure, resazurin diluted in PBS was added directly to the 6-well plates to a final concentration of 0.1 mg/ml. The plates were then put in an incubator for 3 h at 37 °C, 5% CO2. Then, 100 µl of the media was collected and transferred in a 96-well plate for fluorescence analysis, which was done at ex:530 nm/em:590 nm in a multi-well fluorometric reader CytoFluor series 4000 (PerSeptive Biosystems, Inc).
Ten metrics were measured to evaluate changes in neural activity in the BrainSphere MEA assay (Table 3). Considering the complexity of the data which includes seven recording days for each single ROI in a well, an area under the curve (AUC) metric was used to reduce activity across time as described in previous publications (Brown et al. [2016]; Frank et al. [2017b]; Shafer et al. [2019]). […] For concentration–response modeling, the mean AUC values across all the BrainSpheres per well (technical replicates) was computed for each endpoint, such that each concentration included biological replicates from at least three separate wells on three separate plates, representing each individual experiment. The mean AUC values were used for concentration–response modeling using the R package tcplfit2 (version 0.1.6) (Sheffield et al. [2022]). Data were normalized as a percent of vehicle control wells by plate using the equation: resp.pc=rval-bval/bval×100 where resp.pc is the percent of control value, rval is the response value, and bval is the baseline value (defined as the mean of the vehicle control and the lowest tested concentration). […] The activity cutoff was defined as 3 times the median absolute deviation (bmad) of baseline values. A curve was defined as ‘active’ if the continuous hit call was ≥ 0.9. See Supplemental Table 1 for the bmad, activity cutoff threshold, SD, and benchmark response for each endpoint in the BrainSphere MEA. Potency was defined as the concentration at 50% maximal activity (AC50 log10 µM).

[2] = test system: 2D rat cortical cultures; conditions: cited from earlier work; on hitc CCTE Shafer MEA dev active electrodes number: key: 1 (active); 0 (inactive); on hitc CCTE Shafer MEA dev burst duration mean: key: 1 (active); 0 (inactive); on hitc CCTE Shafer MEA dev burst rate: key: 1 (active); 0 (inactive); on hitc CCTE Shafer MEA dev bursting electrodes number: key: 1 (active); 0 (inactive); on hitc CCTE Shafer MEA dev correlation coefficient mean: key: 1 (active); 0 (inactive); on hitc CCTE Shafer MEA dev firing rate mean: key: 1 (active); 0 (inactive); on hitc CCTE Shafer MEA dev inter network spike interval mean: key: 1 (active); 0 (inactive); on hitc CCTE Shafer MEA dev interburst interval mean: key: 1 (active); 0 (inactive); on hitc CCTE Shafer MEA dev mutual information norm: key: 1 (active); 0 (inactive); on hitc CCTE Shafer MEA dev network spike duration std: key: 1 (active); 0 (inactive); on hitc CCTE Shafer MEA dev network spike number: key: 1 (active); 0 (inactive); on hitc CCTE Shafer MEA dev network spike peak: key: 1 (active); 0 (inactive); on hitc CCTE Shafer MEA dev per burst interspike interval: key: 1 (active); 0 (inactive); on hitc CCTE Shafer MEA dev per burst spike percent: key: 1 (active); 0 (inactive); on hitc CCTE Shafer MEA dev per network spike spike number mean: key: 1 (active); 0 (inactive); on hitc CCTE Shafer MEA dev per network spike spike percent: key: 1 (active); 0 (inactive); on hitc CCTE Shafer MEA dev spike duration mean: key: 1 (active); 0 (inactive)
[3] = test system: 2D rat cortical cultures; conditions: cited from earlier work; for hitc CCTE_Shafer_MEA_dev_active_electrodes_number / hitc CCTE_Shafer_MEA_dev_burst_duration_mean / hitc CCTE_Shafer_MEA_dev_burst_rate / hitc CCTE_Shafer_MEA_dev_bursting_electrodes_number / hitc CCTE_Shafer_MEA_dev_correlation_coefficient_mean / hitc CCTE_Shafer_MEA_dev_firing_rate_mean / hitc CCTE_Shafer_MEA_dev_inter_network_spike_interval_mean / hitc CCTE_Shafer_MEA_dev_interburst_interval_mean / hitc CCTE_Shafer_MEA_dev_mutual_information_norm / hitc CCTE_Shafer_MEA_dev_network_spike_duration_std / hitc CCTE_Shafer_MEA_dev_network_spike_number / hitc CCTE_Shafer_MEA_dev_network_spike_peak / hitc CCTE_Shafer_MEA_dev_per_burst_interspike_interval / hitc CCTE_Shafer_MEA_dev_per_burst_spike_percent / hitc CCTE_Shafer_MEA_dev_per_network_spike_spike_number_mean / hitc CCTE_Shafer_MEA_dev_per_network_spike_spike_percent / hitc CCTE_Shafer_MEA_dev_spike_duration_mean: rNFA mc5 hit call; for hitc CCTE_Shafer_MEA_dev_active_electrodes_number: aenm active_electrodes_number; for hitc CCTE_Shafer_MEA_dev_burst_duration_mean: aenm burst_duration_mean; for hitc CCTE_Shafer_MEA_dev_burst_rate: aenm burst_rate; for hitc CCTE_Shafer_MEA_dev_bursting_electrodes_number: aenm bursting_electrodes_number; for hitc CCTE_Shafer_MEA_dev_correlation_coefficient_mean: aenm correlation_coefficient_mean; for hitc CCTE_Shafer_MEA_dev_firing_rate_mean: aenm firing_rate_mean; for hitc CCTE_Shafer_MEA_dev_inter_network_spike_interval_mean: aenm inter_network_spike_interval_mean; for hitc CCTE_Shafer_MEA_dev_interburst_interval_mean: aenm interburst_interval_mean; for hitc CCTE_Shafer_MEA_dev_mutual_information_norm: aenm mutual_information_norm; for hitc CCTE_Shafer_MEA_dev_network_spike_duration_std: aenm network_spike_duration_std; for hitc CCTE_Shafer_MEA_dev_network_spike_number: aenm network_spike_number; for hitc CCTE_Shafer_MEA_dev_network_spike_peak: aenm network_spike_peak; for hitc CCTE_Shafer_MEA_dev_per_burst_interspike_interval: aenm per_burst_interspike_interval; for hitc CCTE_Shafer_MEA_dev_per_burst_spike_percent: aenm per_burst_spike_percent; for hitc CCTE_Shafer_MEA_dev_per_network_spike_spike_number_mean: aenm per_network_spike_spike_number_mean; for hitc CCTE_Shafer_MEA_dev_per_network_spike_spike_percent: aenm per_network_spike_spike_percent; for hitc CCTE_Shafer_MEA_dev_spike_duration_mean: aenm spike_duration_mean; for Bioactivity in the rNFA (in words): ref Brown et al. [2016], Carstens et al. [2022], Frank et al. [2017b], Shafer et al. [2019], ToxCast invitrodb (v4.2); on hitc CCTE Shafer MEA dev active electrodes number: key: 1 (active); 0 (inactive); on hitc CCTE Shafer MEA dev burst duration mean: key: 1 (active); 0 (inactive); on hitc CCTE Shafer MEA dev burst rate: key: 1 (active); 0 (inactive); on hitc CCTE Shafer MEA dev bursting electrodes number: key: 1 (active); 0 (inactive); on hitc CCTE Shafer MEA dev correlation coefficient mean: key: 1 (active); 0 (inactive); on hitc CCTE Shafer MEA dev firing rate mean: key: 1 (active); 0 (inactive); on hitc CCTE Shafer MEA dev inter network spike interval mean: key: 1 (active); 0 (inactive); on hitc CCTE Shafer MEA dev interburst interval mean: key: 1 (active); 0 (inactive); on hitc CCTE Shafer MEA dev mutual information norm: key: 1 (active); 0 (inactive); on hitc CCTE Shafer MEA dev network spike duration std: key: 1 (active); 0 (inactive); on hitc CCTE Shafer MEA dev network spike number: key: 1 (active); 0 (inactive); on hitc CCTE Shafer MEA dev network spike peak: key: 1 (active); 0 (inactive); on hitc CCTE Shafer MEA dev per burst interspike interval: key: 1 (active); 0 (inactive); on hitc CCTE Shafer MEA dev per burst spike percent: key: 1 (active); 0 (inactive); on hitc CCTE Shafer MEA dev per network spike spike number mean: key: 1 (active); 0 (inactive); on hitc CCTE Shafer MEA dev per network spike spike percent: key: 1 (active); 0 (inactive); on hitc CCTE Shafer MEA dev spike duration mean: key: 1 (active); 0 (inactive)
[4] = resazurin, day 13, Supplement 3 prints it also for curves with hit call 0
[5] = tcplfit2 BMD at benchmark response (1.349*SD of baseline controls)
[6] = rNFA mc5 hit call, cytotoxicity AlamarBlue

SMILES | AC50 [1, 4] [µM] | Cytotoxicity hit ([1]; human) | hitc BrainSphere.Cyto ([1]; resazurin, day 13, tcplfit2) | BMD BrainSphere.Cyto [1, 5] [µM] | hitc CCTE_Shafer_MEA_dev_AB [2, 6] | hitc CCTE_Shafer_MEA_dev_active_electrodes_number [3] | hitc CCTE_Shafer_MEA_dev_burst_duration_mean [3] | hitc CCTE_Shafer_MEA_dev_burst_rate [3] | hitc CCTE_Shafer_MEA_dev_bursting_electrodes_number [3] | hitc CCTE_Shafer_MEA_dev_correlation_coefficient_mean [3] | hitc CCTE_Shafer_MEA_dev_firing_rate_mean [3] | hitc CCTE_Shafer_MEA_dev_inter_network_spike_interval_mean [3] | hitc CCTE_Shafer_MEA_dev_interburst_interval_mean [3] | hitc CCTE_Shafer_MEA_dev_mutual_information_norm [3] | hitc CCTE_Shafer_MEA_dev_network_spike_duration_std [3] | hitc CCTE_Shafer_MEA_dev_network_spike_number [3] | hitc CCTE_Shafer_MEA_dev_network_spike_peak [3] | hitc CCTE_Shafer_MEA_dev_per_burst_interspike_interval [3] | hitc CCTE_Shafer_MEA_dev_per_burst_spike_percent [3] | hitc CCTE_Shafer_MEA_dev_per_network_spike_spike_number_mean [3] | further results
CC1(C)S[C@@H]2[C@H](NC(=O)[C@H](N)c3ccc(O)cc3)C(=O)N2[C@H]1C(=O)O [Amoxicillin] | 45 | 0 | 0 | 94 | 0 | 0 | 0 | 0 | 0 | 0 | 0 | 0 | 0 | 0 | 0 | 0 | 0 | 0 | 0 | 0 | hitc CCTE_Shafer_MEA_dev_per_network_spike_spike_percent [3]: 0; hitc CCTE_Shafer_MEA_dev_spike_duration_mean [3]: 0; Bioactivity in the rNFA (in words) [3]: negative in the rNFA; also recorded: inactive in the rNFA; also recorded: inactivity across all metrics in both models
CC(=O)Nc1ccc(O)cc1 [Acetaminophen] | – | 0 | – | – | 0 | 0 | 0 | 0 | 0 | 0 | 0 | 0 | 0 | 0 | 0 | 0 | 0 | 0 | 0 | 0 | AC50 [1]: 45 µM; BMD BrainSphere.Cyto ([1]; human): 174 µM; hitc BrainSphere.Cyto ([1]; human): 0; hitc CCTE_Shafer_MEA_dev_per_network_spike_spike_percent [3]: 0; hitc CCTE_Shafer_MEA_dev_spike_duration_mean [3]: 0; Bioactivity in the rNFA (in words) [3]: inactivity across all metrics in both models; Bioactivity in the rNFA (in words) ([3]; listed as acetaminophen): inactive in both assays; also recorded: did not
ClC1=C(Cl)[C@]2(Cl)[C@@H]3[C@@H]4C[C@@H]([C@H]5O[C@@H]45)[C@@H]3[C@@]1(Cl)C2(Cl)Cl [Dieldrin] | 45 | – | 0 | 509 | – | – | – | – | – | – | – | – | – | – | – | – | – | – | – | – | Cytotoxicity hit ([1]; resazurin, after 13 days of exposure): 0; hitc CCTE_Shafer_MEA_dev_AB [2]: 1; AC50 ([2]; read-out: ac50 CCTE_Shafer_MEA_dev_AB, rNFA mc5, cytotoxicity AlamarBlue): 22.4 µM; Cytotoxicity in the resazurin assay of the rNFA (in words) ([2]; ref Brown et al. [2016], Carstens et al. [2022], Frank et al. [2017b], Shafer et al. [2019], ToxCast invitrodb (v4.2)): demonstrating cytotoxicity in the rNFA
